Data: ChEMBL document CHEMBL4680278 (J Med Chem, 2020)
pKi: −log10 of the molar value.

Experiments:
[1] = target: T1, Cytochrome P450 1A1 (Homo sapiens, UniProt P04798); experiment: Competitive inhibition of human recombinant CYP1A1 using 7-Ethoxyresorufin as substrate by Lineweaver-Burk plot analysis; format: ADME; details: read-out: Ki(app)
T1 sequence (P04798 whole entry): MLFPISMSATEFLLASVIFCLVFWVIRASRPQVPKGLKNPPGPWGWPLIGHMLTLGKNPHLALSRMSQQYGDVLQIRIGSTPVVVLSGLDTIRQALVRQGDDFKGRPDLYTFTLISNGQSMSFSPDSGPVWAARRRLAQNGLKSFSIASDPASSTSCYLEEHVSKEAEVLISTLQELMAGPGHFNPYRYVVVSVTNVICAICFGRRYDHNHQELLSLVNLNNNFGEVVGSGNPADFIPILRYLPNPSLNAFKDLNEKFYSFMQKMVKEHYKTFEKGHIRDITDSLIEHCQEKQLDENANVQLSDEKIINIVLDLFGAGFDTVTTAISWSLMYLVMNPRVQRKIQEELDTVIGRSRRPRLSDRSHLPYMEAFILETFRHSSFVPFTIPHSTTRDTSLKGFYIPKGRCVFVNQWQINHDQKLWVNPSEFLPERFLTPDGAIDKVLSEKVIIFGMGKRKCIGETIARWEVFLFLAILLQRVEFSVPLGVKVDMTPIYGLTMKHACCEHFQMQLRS

[2] = system: Homo sapiens; experiment: Anti-seizure activity in Lennox-Gastaut patient assessed as median percent reduction in seizure frequency at 20 mg/kg administered daily for 14 weeks (reference value: 17%); format: functional; design: scale not given: the % may be the effect or the level left
[3] = Bioavailability in dog at 180 mg; format: ADME, organism-based, Canis lupus familiaris; details: in vivo
[4] = Cmax in human plasma at 3.5 +/- 5.5 mg, INH; format: ADME, cell-free; design: dose 3.5 mg; details: inhaled or intranasal, 3.5 mg
[5] = target: T2, Cytochrome P450 2B6 (Homo sapiens, UniProt P20813); experiment: Mixed type inhibition of human recombinant CYP2B6 expressed in baculovirus-infected insect cells using […] as substrate preincubated for 5 mins followed by NADPH-generating system addition by Lineweaver-Burk plot analysis; format: ADME
T2 sequence (P20813 whole entry): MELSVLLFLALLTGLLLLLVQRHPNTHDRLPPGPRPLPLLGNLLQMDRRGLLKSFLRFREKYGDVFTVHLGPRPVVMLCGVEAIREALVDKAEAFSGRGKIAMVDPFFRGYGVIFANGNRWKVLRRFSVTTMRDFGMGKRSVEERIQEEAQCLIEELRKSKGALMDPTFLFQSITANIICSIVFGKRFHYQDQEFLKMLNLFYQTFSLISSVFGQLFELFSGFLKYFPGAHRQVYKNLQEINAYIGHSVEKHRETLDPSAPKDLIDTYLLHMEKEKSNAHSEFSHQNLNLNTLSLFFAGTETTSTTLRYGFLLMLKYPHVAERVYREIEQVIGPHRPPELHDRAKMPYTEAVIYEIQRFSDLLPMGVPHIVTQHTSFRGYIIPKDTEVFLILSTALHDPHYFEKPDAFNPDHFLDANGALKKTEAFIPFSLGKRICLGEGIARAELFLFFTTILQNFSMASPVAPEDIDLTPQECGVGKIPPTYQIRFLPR

[6] = target: T3, Alpha-2B adrenergic receptor (Homo sapiens, UniProt P18089); experiment: Inhibition of alpha2B receptor (unknown origin)
T3 sequence (P18089 whole entry): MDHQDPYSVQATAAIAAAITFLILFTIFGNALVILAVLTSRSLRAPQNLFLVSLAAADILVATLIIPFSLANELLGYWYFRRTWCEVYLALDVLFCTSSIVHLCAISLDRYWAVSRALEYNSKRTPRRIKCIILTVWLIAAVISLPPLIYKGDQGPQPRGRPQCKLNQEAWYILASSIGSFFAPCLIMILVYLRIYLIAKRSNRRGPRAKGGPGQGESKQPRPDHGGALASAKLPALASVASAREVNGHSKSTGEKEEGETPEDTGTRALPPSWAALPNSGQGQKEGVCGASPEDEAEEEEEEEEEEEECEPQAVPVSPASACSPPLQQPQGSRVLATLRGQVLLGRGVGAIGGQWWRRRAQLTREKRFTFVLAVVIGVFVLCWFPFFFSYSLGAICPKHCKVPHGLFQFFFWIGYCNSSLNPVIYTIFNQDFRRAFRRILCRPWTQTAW

[7] = Half-life in human at 20 mg via smoking measured after 0.05 to 72 hrs by gas chromatograph mass spectrometry; format: ADME; details: in vivo, inhaled or intranasal, time 0.05-72 hrs
[8] = Drug degradation in simulated gastric fluid at 40 mg incubated for 2 hrs by UPLC-MS analysis; format: ADME; details: read-out: Drug degradation
[9] = Volume of distribution in human at 20 mg, iv measured after 0.05 to 72 hrs by gas chromatograph mass spectrometry; format: ADME, organism-based; details: in vivo, time 0.05-72 hrs
[10] = Apparent oral clearance in human at 5 to 20 mg using oromucosal-spray formulation by GC-MS analysis; format: ADME; details: in vivo, dose 5-20 mg
[11] = Elimination rate constant in human using oromucosal-spray measured for 6 weeks
[12] = Elimination half-life in human at 10 mg, po using PTL401 formulation measured upto 24 hrs by LC-MS/MS assay; format: ADME, organism-based; details: in vivo, read-out: beta t1/2 (converted)
[13] = target: T4, 5-hydroxytryptamine receptor 2C (Homo sapiens, UniProt P28335); experiment: Inhibition of 5-HT2C (unknown origin)
T4 sequence (P28335 whole entry): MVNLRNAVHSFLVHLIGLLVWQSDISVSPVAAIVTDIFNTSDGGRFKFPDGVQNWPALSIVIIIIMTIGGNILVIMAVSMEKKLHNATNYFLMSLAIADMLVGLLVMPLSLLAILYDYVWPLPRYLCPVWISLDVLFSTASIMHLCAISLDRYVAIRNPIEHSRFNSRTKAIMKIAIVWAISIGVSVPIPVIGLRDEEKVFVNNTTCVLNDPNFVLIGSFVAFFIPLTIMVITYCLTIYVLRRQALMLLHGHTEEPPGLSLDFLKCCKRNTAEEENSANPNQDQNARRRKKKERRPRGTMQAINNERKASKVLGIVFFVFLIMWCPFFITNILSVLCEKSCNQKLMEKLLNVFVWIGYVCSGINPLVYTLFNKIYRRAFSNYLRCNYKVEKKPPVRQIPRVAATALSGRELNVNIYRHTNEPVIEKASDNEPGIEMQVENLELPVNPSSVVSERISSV

Compound `C=C(C)[C@@H]1CCC(C)=C[C@H]1c1c(O)cc(CCCCC)cc1O` [CANNABIDIOL] has a pKi [1] of 6.80, an Activity [2] of 42% and a bioavailability [3] of 13%. For the same compound, the Cmax [4] was 11.1 nM, the pKi [5] was 6.16 and the pKi [6] was 5.49. It also gave a half-life [7] of 31 h, a degraded at 2 h [8] of 98% and a Vd [9] of 2520 L. It also gave a CL/F [10] of 41700 mL/min, a k el at 1008 h [11] of 3.33e-05 s⁻¹ and a half-life [12] of 2 h. For the same compound, the pKi [13] was 5.96.
